Where a name gives a salt, the structure may show the parent alone. Read-outs that look alike come from different tables or passages of the source.
Key:
Type in all cases: biochemical, Ratten
[1] = biological target: T1, Synaptosomen-Aufnahme von Noradrenalin (Rattus norvegicus, UniProt Q63380); assay: Inhibition of noradrenaline uptake in rat brain synaptosomes (hippocampus, 3H-noradrenaline); conditions: for Hemmung der Synaptosomen-Aufnahme von Noradrenalin r.W. (relative Wirksamkeit): Quotient IC50 Referenzverbindung / IC50 Beispielverbindung
T1 construct: Durch differentielle Zentrifugation wurden Synaptosomen erhalten; from tissue; host or cells: rat brain hippocampus synaptosomes
T1 sequence (Q63380 1-617): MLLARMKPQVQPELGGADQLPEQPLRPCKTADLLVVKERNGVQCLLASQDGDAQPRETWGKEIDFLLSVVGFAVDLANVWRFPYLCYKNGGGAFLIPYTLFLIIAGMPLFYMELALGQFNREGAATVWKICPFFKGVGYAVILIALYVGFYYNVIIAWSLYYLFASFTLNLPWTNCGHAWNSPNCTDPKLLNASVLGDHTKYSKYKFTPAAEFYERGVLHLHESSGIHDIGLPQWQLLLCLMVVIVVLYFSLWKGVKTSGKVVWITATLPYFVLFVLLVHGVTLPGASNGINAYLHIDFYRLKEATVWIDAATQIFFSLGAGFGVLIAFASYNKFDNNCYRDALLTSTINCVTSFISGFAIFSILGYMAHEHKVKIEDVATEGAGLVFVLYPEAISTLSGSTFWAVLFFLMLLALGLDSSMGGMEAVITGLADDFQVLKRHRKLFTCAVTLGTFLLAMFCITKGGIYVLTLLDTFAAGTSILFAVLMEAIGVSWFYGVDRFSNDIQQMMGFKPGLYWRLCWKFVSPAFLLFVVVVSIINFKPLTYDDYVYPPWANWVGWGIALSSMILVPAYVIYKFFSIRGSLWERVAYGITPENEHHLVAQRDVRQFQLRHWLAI
Source text: (§1) Hemmung der Neurotransmitter-Aufnahme in Rattenhirn-Synaptosomen
(§2) Hippocampus und Cortex aus Rattenhirn wurden präpariert und in 0,32 M Sucrose-Lösung homogenisiert. Durch differentielle Zentrifugation wurden Synaptosomen erhalten, die in Pufferlösung suspendiert wurden. Die Synaptosomen sind in der Lage, aus dem umgebenden Medium zugefügte Neurotransmittersubstanzen (z.B. Noradrenalin oder Serotonin) aktiv aufzunehmen. Dieser Vorgang ist durch uptake-Hemmer konzentrationsabhängig antagonisierbar. Die Synaptosomen wurden mit den Testsubstanzen in verschiedenen Konzentrationen versetzt und anschließend mit ³H-Noradrenalin (Hippocampus) bzw. ³H-Serotonin (Cortex) bei 37°C inkubiert. Die Substratkonzentration betrug ca. 10 nM. Nach Stoppen der Aufnahme durch Verdünnen mit eisgekühlter Pufferlösung wurden die Synaptosomen abzentrifugiert und die ³H-Aktivität im Sediment gemessen. Der Blindwert wird durch Inkubation bei 0°C ermittelt.
(§3) Aus den verschiedenen Inhibitor-Konzentrationen gegen Kontrolle ermittelten Hemmwerten wurde durch lineare Regression nach logit-log-Transformation die mittlere Hemmkonzentration IC₅₀ berechnet.

Monoaminoxidase Typ A = biological target: T2, Monoaminoxidase Typ A (Rattus norvegicus, UniProt P21396); assay: Inhibition of monoamine oxidase type A in rat brain homogenate (14C-tryptamine); conditions: for Hemmung der Monoaminoxidase Typ A r.W. (relative Wirksamkeit): Quotient IC50 Referenzverbindung / IC50 Beispielverbindung
T2 construct: Die Bestimmung der Monoaminoxidase erfolgte in verdünntem Rattenhirnhomogenat; from tissue; host or cells: rat brain homogenate
T2 sequence (P21396 1-526): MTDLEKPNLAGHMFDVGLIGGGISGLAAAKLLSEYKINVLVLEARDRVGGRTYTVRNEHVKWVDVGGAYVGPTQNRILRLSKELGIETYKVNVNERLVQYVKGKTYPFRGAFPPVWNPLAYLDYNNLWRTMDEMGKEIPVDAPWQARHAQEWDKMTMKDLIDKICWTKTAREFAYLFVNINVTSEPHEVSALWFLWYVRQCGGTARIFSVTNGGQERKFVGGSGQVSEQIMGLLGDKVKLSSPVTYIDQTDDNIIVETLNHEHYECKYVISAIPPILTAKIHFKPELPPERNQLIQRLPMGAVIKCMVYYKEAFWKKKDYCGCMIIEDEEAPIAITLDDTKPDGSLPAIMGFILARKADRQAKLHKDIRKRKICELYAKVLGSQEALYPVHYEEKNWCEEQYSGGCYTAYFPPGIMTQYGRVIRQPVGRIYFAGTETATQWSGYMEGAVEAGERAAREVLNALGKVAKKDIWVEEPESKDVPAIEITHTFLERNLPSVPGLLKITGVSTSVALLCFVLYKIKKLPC
Experimental: (§4) Hemmung der Monoaminoxidase
(§5) Die Bestimmung der Monoaminoxidase erfolgte in verdünntem Rattenhirnhomogenat dem 1. unterschiedliche Konzentrationen der zu prüfenden Testsubstanzen und 2. für die Bestimmung der Monoaminoxidase Typ A ¹⁴C-Tryptamin in einer Konzentration von 0,4 µmol, zur Bestimmung der Monoaminoxidase Typ B ¹⁴C-Phenylethylamin in einer Konzentration von 0,25 µmol zugesetzt wurde. Dieser Ansatz wurde 20 Minuten bei 37°C inkubiert. Die Reaktion wird durch 0,1 n HCl gestoppt und die Reaktionsprodukte nach Extraktion in Toluol-Szintillator (PPO + POPOP in Toluol) bestimmt. Der Blindwert wird in analogen Ansätzen mit einer Inkubationszeit von t = 0 Minuten bestimmt.
(§6) Aus den bei den verschiedenen Inhibitorkonzentrationen gegen die Kontrolle ermittelten Hemmwerten wurde durch lineare Regression nach logit-log-Transformation die mittlere Hemmkonzentration (IC₅₀) berechnet.

[2] = biological target: T3, Synaptosomen-Aufnahme von Serotonin (Rattus norvegicus, UniProt P31652); assay: Inhibition of serotonin uptake in rat brain synaptosomes (cortex, 3H-serotonin); conditions: for Hemmung der Synaptosomen-Aufnahme von Serotonin r.W. (relative Wirksamkeit): Quotient IC50 Referenzverbindung / IC50 Beispielverbindung
T3 construct: Durch differentielle Zentrifugation wurden Synaptosomen erhalten; from tissue; host or cells: rat brain cortex synaptosomes
T3 sequence (P31652 whole entry): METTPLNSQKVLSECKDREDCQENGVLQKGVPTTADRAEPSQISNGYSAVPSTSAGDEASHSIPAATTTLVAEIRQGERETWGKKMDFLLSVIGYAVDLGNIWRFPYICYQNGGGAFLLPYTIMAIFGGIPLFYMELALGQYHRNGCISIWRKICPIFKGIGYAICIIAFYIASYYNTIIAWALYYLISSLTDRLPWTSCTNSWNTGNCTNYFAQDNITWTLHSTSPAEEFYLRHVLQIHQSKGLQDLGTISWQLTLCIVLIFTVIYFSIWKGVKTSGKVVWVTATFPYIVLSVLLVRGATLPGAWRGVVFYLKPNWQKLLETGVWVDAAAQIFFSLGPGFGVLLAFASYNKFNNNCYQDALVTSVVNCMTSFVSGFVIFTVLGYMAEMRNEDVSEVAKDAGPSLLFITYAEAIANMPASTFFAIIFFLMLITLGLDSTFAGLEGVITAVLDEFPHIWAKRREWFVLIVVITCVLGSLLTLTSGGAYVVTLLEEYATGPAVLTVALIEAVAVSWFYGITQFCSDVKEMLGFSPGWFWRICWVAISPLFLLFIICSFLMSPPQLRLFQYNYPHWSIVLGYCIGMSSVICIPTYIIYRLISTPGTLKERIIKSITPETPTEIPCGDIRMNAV
Source text: as §1, §2, §3

Monoaminoxidase Typ B = biological target: T4, Monoaminoxidase Typ B (Rattus norvegicus, UniProt P19643); assay: Inhibition of monoamine oxidase type B in rat brain homogenate (14C-phenylethylamine); conditions: for Hemmung der Monoaminoxidase Typ B r.W. (relative Wirksamkeit): Quotient IC50 Referenzverbindung / IC50 Beispielverbindung
T4 construct: Die Bestimmung der Monoaminoxidase erfolgte in verdünntem Rattenhirnhomogenat; from tissue; host or cells: rat brain homogenate
T4 sequence (P19643 1-520): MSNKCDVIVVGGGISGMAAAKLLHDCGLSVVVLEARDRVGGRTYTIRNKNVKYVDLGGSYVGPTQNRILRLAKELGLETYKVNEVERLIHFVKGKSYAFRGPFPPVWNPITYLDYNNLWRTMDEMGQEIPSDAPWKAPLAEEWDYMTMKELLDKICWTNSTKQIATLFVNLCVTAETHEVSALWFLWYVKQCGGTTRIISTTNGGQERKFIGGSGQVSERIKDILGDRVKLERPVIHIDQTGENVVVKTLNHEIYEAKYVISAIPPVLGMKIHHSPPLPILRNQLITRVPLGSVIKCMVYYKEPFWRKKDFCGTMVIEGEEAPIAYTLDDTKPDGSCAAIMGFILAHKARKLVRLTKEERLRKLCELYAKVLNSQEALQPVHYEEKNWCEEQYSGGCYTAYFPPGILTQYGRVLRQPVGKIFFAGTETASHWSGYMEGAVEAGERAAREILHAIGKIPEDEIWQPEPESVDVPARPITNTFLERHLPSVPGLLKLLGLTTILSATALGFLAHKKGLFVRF
Experimental: as §4, §5, §6

[3] = rat hippocampus synaptosomes, 3H-Noradrenalin ca. 10 nM, 37°C, read-out: Hemmung der Synaptosomen-Aufnahme von Noradrenalin IC50
[4] = rat brain homogenate, 14C-Tryptamin, 20 min 37°C, read-out: Hemmung der Monoaminoxidase Typ A IC50
[5] = rat cortex synaptosomes, 3H-Serotonin ca. 10 nM, 37°C, read-out: Hemmung der Synaptosomen-Aufnahme von Serotonin IC50
[6] = rat brain homogenate, 14C-Phenylethylamin, 20 min 37°C, read-out: Hemmung der Monoaminoxidase Typ B IC50

| Compound | Hemmung der Synaptosomen-Aufnahme von Noradrenalin r.W. (relative Wirksamkeit) [1] | IC50 [1, 3] [nM] | Hemmung der Monoaminoxidase Typ A r.W. (relative Wirksamkeit) (Monoaminoxidase Typ A) | IC50 (Monoaminoxidase Typ A; [4]) [nM] | Hemmung der Synaptosomen-Aufnahme von Serotonin r.W. (relative Wirksamkeit) [2] | IC50 [2, 5] [nM] | Hemmung der Monoaminoxidase Typ B r.W. (relative Wirksamkeit) (Monoaminoxidase Typ B) | IC50 (Monoaminoxidase Typ B; [6]) [nM] | IC50 [1] [nM] | IC50 (Monoaminoxidase Typ A) [nM] | IC50 [2] [nM] | IC50 (Monoaminoxidase Typ B) [nM] | Hemmung der Monoaminoxidase A, Wirksamkeit der Vergleichssubstanz übertroffen (fach) (Monoaminoxidase Typ A; fold versus comparison substance) |
| --- | --- | --- | --- | --- | --- | --- | --- | --- | --- | --- | --- | --- | --- |
| N=c1ccn(-c2ccc(Cl)c(Cl)c2)nc1 [Beispiel 1, 1-(3,4-Dichlorphenyl)-4-(1H)-pyridazinimin-hydrochlorid] | 5.3 | 5.8 | 2.2 | 1900 | 112 | 6.5 | 18.8 | 2600 | – | – | – | – | – |
| Br.Cc1ccc(-n2ccc(=N)cn2)cc1 [Beispiel 5, 1-(4-Methylphenyl)-4-(1H)-pyridazinimin-hydrobromid] | 0.7 | – | 2.8 | – | 1.4 | – | 4.9 | – | 46 | 1500 | 240 | 10000 | – |
| CCc1ccc(-n2ccc(=N)cn2)cc1.Cl [Beispiel 7, 1-(4-Ethylphenyl)-4-(1H)-pyridazinimin-hydrochlorid] | 0.1 | – | 6.6 | – | 12.6 | – | 32.7 | – | 500 | 640 | 58 | 1500 | – |
| N=c1ccn(-c2ccc(Br)cc2)nc1 [Beispiel 8, 1-(4-Bromphenyl)-4-(1H)-pyridazinimin-hydrochlorid] | 0.9 | 34 | 1.4 | 2900 | 56.2 | 13 | 4.9 | 10000 | – | – | – | – | – |
| COc1cc(-n2ccc(=N)cn2)ccc1C.Cl [Beispiel 10, 1-(3-Methoxy-4-methylphenyl)-4-(1H)-pyridazinimin-hydrochlorid] | 0.3 | – | 3.4 | – | 15.2 | – | 4.9 | – | 110 | 1200 | 48 | 10000 | – |
| Cc1ccc(-n2ccc(=N)cn2)cc1F [Beispiel 11, 1-(3-Fluor-4-methylphenyl)-4-(1H)-pyridazinimin-hydrochlorid] | 1.2 | 26 | 2.0 | 2100 | 7.3 | 100 | 9.6 | 5100 | – | – | – | – | – |
| N=c1ccn(-c2ccc(C(F)(F)F)c(Cl)c2)nc1 [Beispiel 12, 1-(3-Chlor-4-trifluormethylphenyl)-4-(1H)-pyridazinimin-hydrochlorid] | 0.4 | 83 | 2.3 | 1800 | 83.9 | 8.7 | 71 | 700 | – | – | – | – | – |
| Cc1ccc(-n2ccc(=N)cn2)cc1Br [Beispiel 13, 1-(3-Brom-4-methylphenyl)-4-(1H)-pyridazinimin-hydrochlorid] | 1.2 | 26 | 7.0 | 590 | 73.0 | 10 | 39.8 | 1200 | – | – | – | – | ≤ 7 |
| N=c1ccn(-c2ccc(Cl)c(Br)c2)nc1 [Beispiel 16, 1-(3-Brom-4-chlorphenyl)-4-(1H)-pyridazinimin-hydrochlorid] | 2.5 | 13 | 2.0 | 2140 | 109 | 6.7 | 18.1 | 2700 | – | – | – | – | – |
| N=c1ccn(-c2ccc(Br)c(Cl)c2)nc1 [Beispiel 17, 1-(3-Chlor-4-bromphenyl)-4-(1H)-pyridazinimin-hydrochlorid] | 6.5 | 4.8 | 2.7 | 1530 | 184 | 3.9 | 19.0 | 2600 | – | – | – | – | – |
| N=c1ccn(-c2ccc(Br)c(Br)c2)nc1 [Beispiel 18, 1-(3,4-Dibromphenyl)-4-(1H)-pyridazinimin-hydrochlorid] | 6.1 | 5.1 | 4.8 | 870 | 261 | 2.8 | 25.8 | 1900 | – | – | – | – | – |
| N=c1ccn(-c2ccc(C(F)(F)F)cc2)nc1 [Beispiel 32, 1-(4-Trifluormethylphenyl)-4-(1H)-pyridazinimin-hydrobromid] | 0.1 | 700 | 0.6 | 7000 | 16.6 | 44 | 12.2 | 4000 | – | – | – | – | – |
| Cc1ccc(-n2ccc(=N)cn2)cc1Cl [Beispiel 42, 1-(3-Chlor-4-methylphenyl)-4-(1H)-pyridazinimin-hydrochlorid] | 2.1 | 15 | 5.6 | 750 | 36.5 | 20 | 24.5 | 2000 | – | – | – | – | – |
| Cc1cc(-n2ccc(=N)cn2)ccc1Cl [Beispiel 45, 1-(3-Methyl-4-chlorphenyl)-4-(1H)-pyridazinimin-sulfat] | 1.8 | 17 | 4.2 | 1000 | 40.6 | 18 | 9.8 | 5000 | – | – | – | – | – |
